Assay results reported in the supplement of paper PMC13380429.
Structures can show the parent of a compound that is named as a salt. ± gives the standard deviation of the averaged measurements.

Experiments:
[1] = system: A549-ACE2 infected with SARS-CoV-2; test: cell count relative to DMSO; higher = less toxic; settings: 24 h
[2] = system: A549-ACE2 infected with SARS-CoV-2; test: SARS-CoV-2 infection rate relative to DMSO; higher = more infection; settings: 24 h
A549-ACE2 [3] = test: phospholipidosis EC50; higher = less potent phospholipidosis inducer
Caco-2 [4] = test: relative viability EC50 (midpoint between 100% and the lowest measured viability); higher = less toxic; settings: 72 h
Vero E6 [5] = test: drug sensitivity score (DSS) for viability; higher = more toxic; extreme values may be limits of the assay; settings: 72 h
Caco-2 [6] = test: as above; settings: 72 h
HepG2 [7] = test: as above; settings: 72 h
Calu-3 [8] = test: as above; settings: 72 h
U2OS [9] = test: as above; settings: 72 h
[10] = system: A549-ACE2 infected with SARS-CoV-2; test: morphology score (similarity to uninfected cells); higher = more like uninfected cells; settings: 24 h
A549-ACE2 [11] = test: drug-induced phospholipidosis relative to tamoxifen; higher = more phospholipidosis
Vero E6 [12] = test: cell viability relative to DMSO; higher = less toxic; settings: 72 h
Caco-2 [13] = test: as above; settings: 72 h
HepG2 [14] = test: as above; settings: 72 h
Calu-3 [15] = test: as above; settings: 72 h
U2OS [16] = test: as above; settings: 72 h
Vero E6 [17] = test: relative viability EC50 (midpoint between 100% and the lowest measured viability); higher = less toxic; settings: 72 h
Calu-3 [18] = test: as above; settings: 72 h
U2OS [19] = test: as above; settings: 72 h
HepG2 [20] = test: as above; settings: 72 h

Cc1nc(Nc2cnn(C3CCNCC3)c2)nc2c1N(C)C(=O)c1cc3ccccc3cc1N2C [HTH-01-015]
Settings	SARS-CoV-2 infection rate [%]	cell count [%]	cell viability [%]	morphology score	phospholipidosis EC50 [µM]
A549-ACE2 [3], 24 h	–	–	–	–	3.28
A549-ACE2 [3], 48 h	–	–	–	–	3.72
Caco-2 [13], 1 nM	–	–	94.7	–	–
Caco-2 [13], 10 nM	–	–	99.7	–	–
Caco-2 [13], 100 nM	–	–	97.7	–	–
Caco-2 [13], 1000 nM	–	–	103	–	–
Caco-2 [13], 10000 nM	–	–	77.7	–	–
Calu-3 [15], 1 nM	–	–	97.1	–	–
Calu-3 [15], 10 nM	–	–	108	–	–
Calu-3 [15], 100 nM	–	–	99.1	–	–
Calu-3 [15], 1000 nM	–	–	108	–	–
Calu-3 [15], 10000 nM	–	–	59.4	–	–
HepG2 [14], 1 nM	–	–	106	–	–
HepG2 [14], 10 nM	–	–	89.3	–	–
HepG2 [14], 100 nM	–	–	101	–	–
HepG2 [14], 1000 nM	–	–	109	–	–
HepG2 [14], 10000 nM	–	–	67.7	–	–
U2OS [16], 1 nM	–	–	101	–	–
U2OS [16], 10 nM	–	–	108	–	–
U2OS [16], 100 nM	–	–	100	–	–
U2OS [16], 1000 nM	–	–	107	–	–
U2OS [16], 10000 nM	–	–	53.1	–	–
Vero E6 [12], 1 nM	–	–	106	–	–
Vero E6 [12], 10 nM	–	–	106	–	–
Vero E6 [12], 100 nM	–	–	104	–	–
Vero E6 [12], 1000 nM	–	–	98.5	–	–
Vero E6 [12], 10000 nM	–	–	74.1	–	–
[1], 0.1 µM	–	97	–	–	–
[1], 0.3 µM	–	102	–	–	–
[1], 1 µM	–	103	–	–	–
[1], 3 µM	–	99	–	–	–
[2], 0.1 µM	105	–	–	–	–
[2], 0.3 µM	105	–	–	–	–
[2], 1 µM	100	–	–	–	–
[2], 3 µM	77	–	–	–	–
[10], 0.1 µM	–	–	–	-0.27	–
[10], 0.3 µM	–	–	–	0.2	–
[10], 1 µM	–	–	–	0.05	–
[10], 3 µM	–	–	–	0.67	–

Settings	drug sensitivity score	relative viability EC50 [µM]
Caco-2 [4]	–	> 10
Caco-2 [6]	0.6	–
Calu-3 [8]	1.6	–
HepG2 [7]	1	–
U2OS [9]	2	–
Vero E6 [5]	1.2	–

drug-induced phospholipidosis [%], A549-ACE2 [11]
Settings	0.3 µM	0.833333 µM	3.33333 µM	6.66667 µM	10 µM	30 µM
24 h	2.9	6.1	51.1	120	118	24.5
48 h	6.71	6.12	41.5	172	169	–
72 h	6.1	4.78	42.6	–	–	–

Cc1ccc(CNc2ncnc3ccc(-c4ccc(CO)o4)cc23)o1 [ML167]
Settings	SARS-CoV-2 infection rate, [2] [%]	cell count, [1] [%]	cell viability, Caco-2 [13] [%]	cell viability, Calu-3 [15] [%]	cell viability, HepG2 [14] [%]	cell viability, U2OS [16] [%]	cell viability, Vero E6 [12] [%]	morphology score, [10]
1 nM	–	–	106	102	94.8	102	104	–
10 nM	–	–	97.3	91.5	102	99.7	105	–
100 nM	–	–	110	98.1	99.2	106	95	–
0.3 µM	98	99	–	–	–	–	–	0.14
1000 nM	–	–	84.8	85	93.5	97.7	96.5	–
3 µM	92	111	–	–	–	–	–	0.35
10 µM	89	103	–	–	–	–	–	0.47
10000 nM	–	–	93.6	83	70.5	99.9	89.1	–
30 µM	72	99	–	–	–	–	–	0.52

Settings	drug sensitivity score	relative viability EC50 [µM]
Caco-2 [4]	–	> 10
Caco-2 [6]	1.2	–
Calu-3 [8]	1.2	–
Calu-3 [18]	–	> 10
HepG2 [7]	2.3	–
U2OS [9]	0	–
U2OS [19]	–	> 10
Vero E6 [5]	0	–
Vero E6 [17]	–	> 10

drug-induced phospholipidosis [%], A549-ACE2 [11]
Settings	0.3 µM	0.833333 µM	3.33333 µM	6.66667 µM	10 µM	30 µM
24 h	2.53	0.81	-3.37	5.92	6.99	19.4
48 h	1.66	-0.31	-4.24	1.31	3.46	12.6
72 h	1.51	-4.06	-1.11	-0.124	2.4	14.2

Oc1cc(CNC(=S)/C=C/c2cc(O)c(O)c(Br)c2)cc(O)c1O [NT157]
Settings	SARS-CoV-2 infection rate, [2] [%]	cell count, [1] [%]	cell viability, Caco-2 [13] [%]	cell viability, Calu-3 [15] [%]	cell viability, HepG2 [14] [%]	cell viability, U2OS [16] [%]	cell viability, Vero E6 [12] [%]	morphology score, [10]
1 nM	–	–	78.4	104	101	102	89.7	–
10 nM	–	–	102	101	101	98.2	102	–
0.1 µM	104	104	–	–	–	–	–	0.06
100 nM	–	–	99.4	109	95.6	99.8	92.8	–
0.3 µM	103	107	–	–	–	–	–	0.02
1 µM	105	106	–	–	–	–	–	-0.23
1000 nM	–	–	90.2	103	74.1	64.9	91	–
3 µM	101	93	–	–	–	–	–	-0.08
10000 nM	–	–	25.7	25.6	25.4	23.5	32.9	–

Settings	drug sensitivity score	relative viability EC50 [µM]
Caco-2 [4]	–	2.1
Caco-2 [6]	5.8	–
Calu-3 [8]	3.9	–
Calu-3 [18]	–	3.38
HepG2 [7]	7.4	–
HepG2 [20]	–	1.35
U2OS [9]	8.8	–
U2OS [19]	–	1.07
Vero E6 [5]	5.2	–
Vero E6 [17]	–	2.08

drug-induced phospholipidosis [%], A549-ACE2 [11]
Settings	0.3 µM	0.833333 µM	3.33333 µM	6.66667 µM	10 µM
24 h	2.74	-0.68	-0.71	22	29.2
48 h	2.03	-0.74	-5.67	–	–
72 h	3.76	-0.841	–	–	–

CCN1CCN(c2ccc(Nc3cc(N(C)C(=O)Nc4c(Cl)c(OC)cc(OC)c4Cl)ncn3)cc2)CC1 [NVP-BGJ398]
Settings	SARS-CoV-2 infection rate, [2] [%]	cell count, [1] [%]	cell viability, Caco-2 [13] [%]	cell viability, Calu-3 [15] [%]	cell viability, HepG2 [14] [%]	cell viability, U2OS [16] [%]	cell viability, Vero E6 [12] [%]	morphology score, [10]
1 nM	–	–	109	116	111	104	91.7	–
10 nM	–	–	102	102	100	95.1	101	–
0.1 µM	99	91	–	–	–	–	–	0.05
100 nM	–	–	103	106	110	98.1	90.5	–
0.3 µM	100	91	–	–	–	–	–	-0.02
1 µM	110	98	–	–	–	–	–	0.02
1000 nM	–	–	95.4	99.4	106	89.5	90.8	–
3 µM	97	93	–	–	–	–	–	0.2
10000 nM	–	–	76.1	89.8	68	90.5	66.2	–

Settings	drug sensitivity score	relative viability EC50 [µM]
Caco-2 [4]	–	> 10
Caco-2 [6]	1.5	–
Calu-3 [8]	0	–
Calu-3 [18]	–	> 10
HepG2 [7]	1.1	–
U2OS [9]	0.1	–
U2OS [19]	–	> 10
Vero E6 [5]	2.4	–

drug-induced phospholipidosis [%], A549-ACE2 [11]
Settings	0.3 µM	0.833333 µM	3.33333 µM	6.66667 µM	10 µM	30 µM
24 h	7.01	-3.2	0.41	0.28	8.33	40.8
48 h	5.03	-4.72	-2.05	0.17	2.69	25.9
72 h	3.12	-9.17	-6.95	-2.87	-1.22	27.1

C[C@H](N)Cc1c[nH]cn1 [alpha-methylhistamine-dihydrobromide-(S)-(+)]
Settings	SARS-CoV-2 infection rate, [2] [%]	cell count, [1] [%]	cell viability, Caco-2 [13] [%]	cell viability, Calu-3 [15] [%]	cell viability, HepG2 [14] [%]	cell viability, U2OS [16] [%]	cell viability, Vero E6 [12] [%]	morphology score, [10]
1 nM	–	–	93.5 ± 9.1	100 ± 1.1	96.1 ± 6.5	98.9	94.7	–
10 nM	–	–	87.9 ± 3	105 ± 4	103 ± 1.3	96.9	96.5	–
100 nM	–	–	95.2 ± 2.3	98.2 ± 1.8	93 ± 1.9	101	92.7	–
0.3 µM	96	109	–	–	–	–	–	0.22
1000 nM	–	–	98.5 ± 7.1	100 ± 4.2	100.2 ± 0.28	101	96.5	–
3 µM	101	104	–	–	–	–	–	0.16
10 µM	90	104	–	–	–	–	–	0.28
10000 nM	–	–	96.6 ± 0.28	101 ± 2.8	94.8 ± 0.71	99.2	105	–
30 µM	104	98	–	–	–	–	–	-0.09

Settings	drug sensitivity score	relative viability EC50 [µM]
Caco-2 [4]	–	> 10
Caco-2 [6]	0	–
Calu-3 [8]	0	–
Calu-3 [18]	–	> 10
HepG2 [7]	0	–
HepG2 [20]	–	> 10
U2OS [9]	0	–
U2OS [19]	–	> 10
Vero E6 [5]	0	–
Vero E6 [17]	–	> 10

drug-induced phospholipidosis [%], A549-ACE2 [11]
Settings	0.3 µM	0.833333 µM	3.33333 µM	6.66667 µM	10 µM	30 µM
24 h	1.4	-2.09	-0.4	-0.13	-1.06	2.88
48 h	2.76	-1.54	-1.15	-0.6	0.05	3.3
72 h	2.88	-1.77	-1.17	-0.807	0.33	4.01

S=C(S)N1CCCC1 [pyrrolidine-dithiocarbamate]
Settings	SARS-CoV-2 infection rate, [2] [%]	cell count, [1] [%]	cell viability, Caco-2 [13] [%]	cell viability, Calu-3 [15] [%]	cell viability, HepG2 [14] [%]	cell viability, U2OS [16] [%]	cell viability, Vero E6 [12] [%]	morphology score, [10]
1 nM	–	–	101	93.7	95.5	101	102	–
10 nM	–	–	101	94.2	93.4	99.3	106	–
0.1 µM	108	101	–	–	–	–	–	-0.05
100 nM	–	–	90.2	102	96	102	101	–
0.3 µM	93	105	–	–	–	–	–	0.28
1 µM	85	103	–	–	–	–	–	0.32
1000 nM	–	–	30.4	99.8	106	95.4	103	–
3 µM	83	104	–	–	–	–	–	0.39
10000 nM	–	–	15.7	41.7	13.1	58.4	63	–

Settings	drug sensitivity score	relative viability EC50 [µM]
Caco-2 [4]	–	0.368
Caco-2 [6]	14.2	–
Calu-3 [8]	3.2	–
Calu-3 [18]	–	3.14
HepG2 [7]	4.4	–
HepG2 [20]	–	3.53
U2OS [9]	2.8	–
Vero E6 [5]	1.6	–

drug-induced phospholipidosis [%], A549-ACE2 [11]
Settings	0.3 µM	0.833333 µM	6.66667 µM	10 µM	30 µM
24 h	1.65	-0.57	5.92	3.64	-1.59
48 h	1.79	0.61	–	–	–
72 h	3.8	0.446	–	–	–
